US20210177992A1, “ANTICANCER FLUORESCENT SUBSTANCE DERIVED FROM NATURAL MATERIALS” (SEOUL NATIONAL UNIVERSITY R&DB FOUNDATION, priority 2017, published 2021)

Experiments:
cancer cells = assay: Annexin V FACS, apoptotic cells in cancer cells compared with normal cells; assay type: cell-based; conditions: 100 μM resveratrone glucoside, 24 hours
Experimental: (§1) Cancer cell apoptotic effects of resveratrone and resveratrone glucoside (see U.S. Pat. No. 9,708,23762) were measured by FACS using Annexin-V binding to phosphatidiylserine (PS) which exists in the inner leaflet of the cytoplasmic membrane and is exposed to the outer leaflet of cell membrane during apoptosis.
In detail, apoptosis of normal cells or cancer cells, each treated with resveratrone or resveratrone glucoside, was evaluated by measuring signals of Alexa dye-conjugated annexin V using FACS. HeLa, MCF7, SW480, SW620, and HCC1954 which are cancer cells, and NIH3T3 and MCF10A which are normal cells, each treated with 50 μM resveratrone or 100 μM resveratrone glucoside, were cultured under conditions of 37° C. and 5% CO2 for 24 hours. Thereafter, media was removed, and the cells were washed with PBS buffer twice to remove remaining resveratrone or resveratrone glucoside. The cells were collected and centrifuged to remove supernatants. Annexin-bound buffer (10 mM HEPES, 140 mM NaCl, 2.5 mM CaCl2, pH 7.4) was added and resuspended. 5 μl of Alexa Fluor 647-conjugated annexin V was added to the resuspended cells at the cell volume of 100 μl, followed by incubation for 15 minutes. 1 ml of binding buffer was added to the incubated cells, followed by centrifugation. […]

cancer cell MCF7 [1] = assay: TUNEL assay; assay type: cell-based; conditions: MCF7, 50 μM, 24 hours
Experimental: (§2) In detail, a cancer cell MCF7 and a normal cell MCF10A were treated with 50 μM of resveratrone or resveratrone glucoside, respectively, and incubated for 24 hours. Thereafter, the cells were treated with 0.5% PBS-Triton X-100 and incubated for 10 minutes to increase cell permeability. The cells were treated with terminal deoxynucleotide transferase and tetra-methyl-rhodamine dUTP, followed by incubation at 37° C. for 1 hour. Next, the cells were washed with PBS three times, and treated with DAPI dye for nuclear counterstaining. Apoptotic signals were observed using fluorescence images.

normal cell MCF10A [2] = assay: TUNEL assay; assay type: cell-based; conditions: 50 μM, 24 hours
Experimental: as §2

zebrafish embryos = assay: Cytotoxicity and fluorescence in zebrafish embryos; assay type: in vivo; conditions: 300 μM, observed at 2 hr, 20 hr, 48 hr, 72 hr
Experimental: In detail, zebrafish embryos (donated by Hyunsook Lee Lab, School of Biological Sciences, Seoul National University) were cultured, and treated with 300 μM of resveratrone or resveratrone glucoside. At 2 hr, 20 hr, 48 hr, and 72 hr after treatment, their changes were observed.

MCF10A = assay: Annexin V FACS apoptosis measurement; assay type: cell-based; conditions: MCF10A normal cell, 24 hours
Experimental: as §1
(§3) In detail, apoptosis of normal cells or cancer cells, each treated with resveratrone or resveratrone glucoside, was evaluated by measuring signals of Alexa dye-conjugated annexin V using FACS. HeLa, MCF7, SW480, SW620, and HCC1954 which are cancer cells, and NIH3T3 and MCF10A which are normal cells, each treated with 50 μM resveratrone or 100 μM resveratrone glucoside, were cultured under conditions of 37° C. and 5% CO2 for 24 hours. Thereafter, media was removed, and the cells were washed with PBS buffer twice to remove remaining resveratrone or resveratrone glucoside. The cells were collected and centrifuged to remove supernatants. Annexin-bound buffer (10 mM HEPES, 140 mM NaCl, 2.5 mM CaCl2, pH 7.4) was added and resuspended. 5 μl of Alexa Fluor 647-conjugated annexin V was added to the resuspended cells at the cell volume of 100 μl, followed by incubation for 15 minutes. 1 ml of binding buffer was added to the incubated cells, followed by centrifugation. The supernatant was removed to remove remaining Alexa Fluor 647-conjugated annexin V. Thereafter, 500 μl of annexin-binding buffer was further added, and cells were passed through a cell strainer cap and stored in a round-bottom tube.

MCF7 = assay: Annexin V FACS apoptosis measurement; assay type: cell-based; conditions: MCF7 cancer cell, 24 hours
Experimental: as §1, §3

cancer cell MCF7 [3] = assay: Cell morphology by optical microscopy; assay type: cell-based; conditions: MCF7, 50 μM, 48 hours
Experimental: (§4) In detail, a normal cell MCF10A and a cancer cell MCF7 were treated with 50 μM of resveratrone, respectively, and incubated for 48 hours. After incubation, media was removed, and the cells were washed with PBS buffer three times. Changes of cell morphology in PBS buffer were observed and compared by optical microscopy.

normal cell MCF10A [4] = assay: Cell morphology by optical microscopy; assay type: cell-based; conditions: 50 μM, 48 hours
Experimental: as §4

cancer cell MCF7 [5] = assay: Western blotting for cleaved parp; assay type: cell-based; conditions: MCF7, 50 μM, 48 hours
Experimental: (§5) In detail, a cancer cell MCF7 and a normal cell MCF10A were treated with 50 μM of resveratrone, respectively, and incubated for 48 hours. The incubated cells were harvested and lysed with a NETN buffer (150 mM NaCl, 20 mM Tris/Cl pH 8.0, 0.5% v/v NP-40, 1 mM EDTA) containing a protease inhibitor, and then conjugated with a cleaved parp antibody, and sequentially, with a secondary antibody. Then, the presence or absence thereof was examined.

normal cell MCF10A [6] = assay: Western blotting for cleaved parp; assay type: cell-based; conditions: 50 μM, 48 hours
Experimental: as §5

SW480 = assay: Annexin V FACS apoptosis measurement; assay type: cell-based; conditions: SW480 cancer cell, 50 μM resveratrone, 24 hours
Experimental: as §1, §3

NIH3T3 = assay: Annexin V FACS apoptosis measurement; assay type: cell-based; conditions: NIH3T3 normal cell, 50 μM resveratrone, 24 hours
Experimental: as §1, §3

HCC1954 = assay: Annexin V FACS apoptosis measurement; assay type: cell-based; conditions: HCC1954 cancer cell, 50 μM resveratrone, 24 hours
Experimental: as §1, §3

SW620 = assay: Annexin V FACS apoptosis measurement; assay type: cell-based; conditions: SW620 cancer cell, 50 μM resveratrone, 24 hours
Experimental: as §1, §3

HeLa = assay: Annexin V FACS apoptosis measurement; assay type: cell-based; conditions: HeLa cancer cell, 50 μM resveratrone, 24 hours
Experimental: as §1, §3

[7] = test system: organoids having G12D mutation of Kras gene; assay: Apoptosis in pancreatic organoids; assay type: cell-based, mouse; conditions: treatment repeated after 72 hr, read 12 hr after final treatment
Experimental: In detail, as an alternative to a pancreatic tissue of a wild-type mouse and an individual with cancer, a pancreatic tissue having G12D mutation of Kras gene was obtained from a transgenic mouse, and the pancreatic tissue was dissociated with a dissociation solution, filtered. Then, a cell pellet containing ductal cells was collected by centrifugation, and incubated with a biological substrate material. The dissociation solution containing Hank's Balanced Salt Solution (HBSS) (3 ml), collagenase P (5 mg/ml), and DNase 1 (1 Units/μl) was used in a volume of 3 ml per pancreatic tissue (Vpan=about 1.08 mg/mm^3). When the collected cell pellet was incubated with the biological substrate material, three-dimensional pancreatic organoids were prepared by incubation under conditions of 37° C. and 5% CO2 with Matrigel which is a gelatinous protein mixture secreted from the murine Engelbreth-Holm-Swarm (EHS) sarcoma. Resveratrone and resveratrone glucoside were treated using DMSO as a solvent to reach a specific concentration with respect to the culture. After 72 hr, the medium was replaced by a fresh culture medium, and the above treatment was repeated. 12 hr after final treatment, changes of the organoids were recorded using an inverted fluorescence microscope (available from Zeiss) capable of photographing […] fluorescence. […]

Structure (SMILES): CC(=O)/C=C/c1ccc2cc(O[C@@H]3OC(CO)[C@@H](O)C(O)C3O)cc(O)c2c1 (stereo partly drawn) [resveratrone glucoside]
- increase of number of apoptotic cells in cancer cells as compared with normal cells (cancer cells): about 22 times
- TUNEL apoptotic signals (cancer cell MCF7 [1]): observed only in the cancer cell MCF7
- TUNEL apoptotic signals (normal cell MCF10A [2]): no effect on normal cells
- cytotoxicity during development of zebrafish embryos (zebrafish embryos): induced no cytotoxicity
- Apoptotic fraction (%) (MCF10A; 100 μM resveratrone glucoside): 0.7%
- Apoptotic fraction (%) (MCF7; 100 μM resveratrone glucoside): 15.5%

Structure (SMILES): CC(=O)/C=C/c1ccc2cc(O)cc(O)c2c1 [resveratrone]
- Changes of cell morphology (cancer cell MCF7 [3]): showed morphological features of apoptosis
- Changes of cell morphology (normal cell MCF10A [4]): clearly observed irrespective of treatment with resveratrone
- TUNEL apoptotic signals (cancer cell MCF7 [1]): observed only in the cancer cell MCF7
- TUNEL apoptotic signals (normal cell MCF10A [2]): no effect on normal cells
- Cleaved parp presence (cancer cell MCF7 [5]): observed in the resveratrone-treated cancer cells
- Cleaved parp presence (normal cell MCF10A [6]): not observed in the resveratrone-treated normal cells
- cytotoxicity during development of zebrafish embryos (zebrafish embryos): induced no cytotoxicity
- Apoptotic fraction (%) (MCF10A; 50 μM resveratrone): 1.0%
- Apoptotic fraction (%) (SW480): 15.5%
- Apoptotic fraction (%) (NIH3T3): 2.0%
- Apoptotic fraction (%) (HCC1954): 39.3%
- Apoptotic fraction (%) (MCF7; 50 μM resveratrone): 26.0%
- Apoptotic fraction (%) (SW620): 17.4%
- Apoptotic fraction (%) (HeLa): 20.0%
- apoptosis induction in organoids [7]: showed apoptosis induction
